Measured values: patent publication US6686382B2, “Sulfonamides and derivatives thereof that modulate the activity of endothelin” (Encysive Pharmaceuticals Inc., priority 1999, dated 2004)

Key:
[1] = test system: ETA receptors and ETB receptors; assay: Endothelin binding inhibition, ETA (TE 671) and ETB (transfected COS7) receptors: selectivity; set-up: species or system human; conditions: antagonism of ETA receptors over ETB receptors
Source text: Compounds that are potential endothelin antagonists are identified by testing their ability to compete with ^125I-labeled ET-1 for binding to human ETA receptors or ETB receptors present on isolated cell membranes. The effectiveness of the test compound as an antagonist or agonist of the biological tissue response of endothelin can also be assessed by measuring the effect on endothelin induced contraction of isolated rat thoracic aortic rings. The ability of the compounds to act as antagonists or agonists for ETB receptors can be assess by testing the ability of the compounds are to inhibit endothelin-1 induced prostacyclin release from cultured bovine aortic endothelial cells.
A. Endothelin Binding Inhibition—Binding Test #1: Inhibition of Binding to ETA Receptors
TE 671 cells (ATCC Accession No. HTB 139) express ETA receptors. These cells were grown to confluence in T-175 flasks. Cells from multiple flasks were collected by scraping, pooled and centrifugedfor 10 min at 190×g. The cells were resuspended in phosphate buffered saline (PBS) containing 10 mM EDTA using a Tenbroeck homogenizer. The suspension was centrifuged at 4° C. at 57,800×g for 15 min, the pellet was resuspended in 5 ml of buffer A (5 mM HEPES buffer, pH 7.4 containing aprotinin (100 KIU/ml)) and then frozen and thawed once. 5 ml of Buffer B (5 mM HEPES Buffer, pH 7.4 containing 10 mM MnCl2 and 0.001% deoxyribonuclease Type 1) was added, the suspension mixed by inversion and then incubated at 37° C. for 30 minutes. The mixture was centrifuged at 57,800×g as described above, the pellet washed twice with buffer A and then resuspended in buffer C (30 mM HEPES buffer, pH 7.4 containing aprotinin (100 KIU/ml) to give a final protein concentration of 2 mg/ml and stored at −70° C. until use.
The membrane suspension was diluted with binding buffer (30 mM HEPES buffer, pH 7.4 containing 150 mM NaCl, 5 mM MgCl2, 0.5% Bacitracin) to a concentration of 8 μg/50 μl. ^125I-endothelin-1 (3,000 cpm, […]) was added to 50 μL of either: (A) endothelin-1 (for non specific binding) to give a final concentration 80 nM); (B) binding buffer (for total binding); or (C) a test compound (final concentration 1 nM to 100 μM). The membrane suspension (50 μL), containing up to 8 μg of membrane protein, was added to each of (A), (B), or (C). Mixtures were shaken, and incubated at 4° C. for 16-18 hours, and then centrifuged at 4° C. for 25 min at 2,500×g. Alternatively, the incubation was conducted at 24° C. […] This, must be kept in mind when comparing IC50 concentrations among compounds provided herein.
The supernatant, containing unbound radioactivity, was decanted and the pellet counted on a Genesys multiwell gamma counter. The degree of inhibition of binding (D) was calculated according to the following equation: [formula]
B. Endothelin Binding Inhibition—Binding Test #2: Inhibition of Binding to ETB Receptors
COS7 cells were transfected with DNA encoding the ETB receptor, The resulting cells, which express the human ETB receptor, were grown to confluence in T-150 flasks. Membrane was prepared as described above. The binding assay was performed as described above using the membrane preparation diluted with binding buffer to a concentration of 1 μg/50 μl.
Briefly, the COS7 cells, described above, that had been transfected with DNA encoding the ETB receptor and express the human ETB receptor on their surfaces were grown to confluence in T-175 flasks. […]

[2] = test system: rats exposed to acute hypoxia; assay: Acute hypoxia model, mean pulmonary arterial pressure (MPAP) increase; conditions: in vivo model, rat
Experimental: The chamber was gassed by adding N2 to the chamber intermittently from a liquid N2 reservoir. A baralyme (Allied Health Care Products, St. Louis, Mo., USA) CO2 scrubber kept the CO2 concentration <0.2%. Relative humidity within the chamber was kept <70% with anhydrous CaSO4. Boric acid was used to keep NH3 levels within the chamber at a minimum. See, Tilton et al. (2000) Pulm. Pharm. Ther. 13:87-97. In the initial experiment, effects of a test compound were assessed on mean pulmonary arterial pressure (MPAP) of rats subsequently exposed to acute hypoxia 90 min in duration. […] All catheters were connected to polyethylene (PE 20) tubing, and were exteriorized at the back of the neck by a stainless steel wire (0.018 in. diam) tunneled subcutaneously. Two days later, MPAP was recorded through the femoral and pulmonary arterial cannulas via transducers coupled to a polygraph recorder. […] Pulmonary pressure rapidly returned toward baseline values when this group was returned to room air at the end of the experiment.

[3] = test system: DOCA-salt hypertensive rat; assay: Deoxycorticosterone acetate (DOCA)-salt hypertensive rat model; conditions: in vivo
Experimental: Selected compounds disclosed herein have been tested for activity in the deoxycorticosterone acetate (DOCA)-salt hypertensive rat model. To perform these tests, silastic MDX4-4210 elastomer implants containing 47 mg (DOCA) were prepared according to the method of Ornmsbee et al. ((1973) the J. Pharm. Sci. 62:255-257). Briefly, DOCA is incorporated into silicon rubber implants for sustained release. To prepare the implants the DOCA is incorporated into unpolymerized silicone rubber, catalyst is added and the mixture is cast in a hemicylindrical shape.
Sprague Dawley rats (7-8 weeks old) were unilaterally nephrectomized under ketamine anesthesia and a DOCA-implant was placed on the left lateral dorsal abdomen of the animal. The rats were allowed to recover for three weeks. During recovery they were permitted free access to normal rat chow and 0.9% NaCl drinking solution in place of drinking water. The rats develop hypertension within 3 weeks. […]
On the day of experimentation, catheters were inserted under brevital anesthesia into the right femoral artery for measurement of blood pressure, and into the right femoral vein for administration of a selected compound. The animals were placed in a restrainer and allowed to recover for a minimum of 60 min or until a steady mean arterial blood pressure was recorded. […] Blood pressure was recorded continuously for a further 10 hrs.

## CC(=O)c1cc(C)cc(C)c1NC(=O)c1sccc1S(=O)(=O)Nc1onc(C)c1C [Compound 7, N-(2-acetyl-4,6-dimethylphenyl)-3-{[(3,4 dimethyl-5-isoxazolyl)amino]sulfonyl}-2-thiophenecarboxamide]
[1]
  Selectivity (IC50 for ETB/IC50 for ETA): 441,000
[2]; listed as N-(2-acetyl-4,6-dimethylphenyl)-3-{[(3,4 dimethyl-5-isoxazolyl)amino]-sulfonyl}-
  Acute Hypoxia: dose to achieve 50% inhibition of mean pulmonary artery pressure increase: 1 mg/kg
[2]; listed as N-(2-acetyl-4,6-dimethylphenyl)-3-{[(3,4 dimethyl-5-isoxazolyl)amino]sulfonyl}-2
  Acute Hypoxia: dose to achieve 50% inhibition of mean pulmonary artery pressure increase: approximately 1 mg/kg
[3]
  effect on blood pressure in the hypertensive rat model: effective in decreasing blood pressure

## Cc1cc(C)c(NC(=O)c2sccc2S(=O)(=O)Nc2onc(C)c2Cl)c(S(C)(=O)=O)c1 [Compound 42, 3-{[(4-chloro-3-methyl-5-isoxazolyl)amino]sulfonyl)-N-[2,4-dimethyl-6-(methylsulfonyl)phenyl]-2-thiophenecarboxamide]
[1]
  Selectivity (IC50 for ETB/IC50 for ETA): 456,000
other
  melting point: 208 to 210 °C

## Cc1cc(C)c(NC(=O)c2sccc2S(=O)(=O)Nc2onc(C)c2Cl)c(Cl)c1 [Compound 34, N-(2-chloro-4,6-dimethylphenyl)-3-{[(4-chloro-3-methyl-5-isoxazolyl)amino]sulfonyl}2-thiophenecarboxamide]
[1]
  Selectivity (IC50 for ETB/IC50 for ETA): 166,000
other
  melting point: 174 to 176 °C

## Cc1cc2c(cc1CC(=O)c1sccc1S(=O)(=O)Nc1onc(C)c1Cl)OCO2 [N-(4-chloro-3-methyl-5-isoxazolyl)-2-{[3,4-(methylenedioxy)-6-methylphenyl)acetyl]-thiophene-3-sulfonamide, reference compound]
[1]
  Selectivity (IC50 for ETB/IC50 for ETA): 20,950
[2]
  Acute Hypoxia: dose to achieve 50% inhibition of mean pulmonary artery pressure increase: 2.5 mg/kg
